Values joined by “and” are separate entries in the source; they are usually repeats but may differ in a detail not shown here. Equal entries are not always repeated.
System: S. mutans UA159
Test: pH of culture medium of S. mutans biofilms after 1 minute incubation with test treatments
Format: cell-based, Streptococcus mutans
Details: for pH of the medium, Average: average of samples; for pH of the medium: individual samples 1-4; for drop in pH of the medium (initial pH minus pH at 6 or 8 hours): 6 and 8 hours after treatment, FIGS. 2 and 3; for statistical significance of pH results compared to the water control: p<0.05
Source text: Amongst acidogenic bacteria, S. mutans is the principal etiological agent of caries in humans. Since there is a strong correlation between the proportion of S. mutans in dental plaque or in saliva relative to other bacterial species and the presence or risk of future outbreaks of dental caries, S. mutans in plaque or saliva may serve as an index for both dental caries activity state and dental caries risk or susceptibility. S. mutans UA159 strain was used in this Example.
On the first day, biofilm growth was initiated by inoculating 10 mL of 100% Todd-Hewitt broth (THYE) with 0.3% yeast extract at a pH of 7.0 with UA159 to prepare overnight cultures. The samples were incubated in closed screw-cap tubes without agitation at 37° C. in an anaerobic chamber (5% CO2).
On the second day, 1:100 dilutions were prepared by mixing 20 pl of the overnight UA159 cultures with ¼ THYE with 0.075% yeast extract supplemented with 0.1% sucrose to reach a final volume of 2 mL. The dilutions were then placed into the wells of 12-well plates.
On the third day, the 2 mL of medium was removed from each well. 1.0 mL of test treatment solution, as described below, was added to each well, after which the wells were incubated for 1 minute on the bench at room temperature. Next, the test treatment solutions were removed, and 3.0 mL of undiluted THYE with 0.3% yeast extract and no sucrose was added to each well.
If an internal pH control was required, fresh THYE was also added to two un-inoculated wells. During these steps, care was taken to avoid disrupting the biofilm.
Immediately after 100% THYE with 0.3% yeast extract was added to the wells following incubation with the test treatments, the initial pH of the medium in each well was measured. Samples were incubated at 37° C. in an open air, bench-top incubator, and the pH of the medium was measured once an hour for the next 7-8 hours. Finally, the pH of the medium in each well was measured again the next morning.

Row | Compound | pH of the medium, Average (0 hours after treatment) | pH of the medium (0 hours after treatment) | drop in pH of the medium (initial pH minus pH at 6 or 8 hours) | pH of the medium, Average (1 hour after treatment) | pH of the medium (1 hour after treatment) | pH of the medium, Average (2 hours after treatment) | pH of the medium (2 hours after treatment) | pH of the medium, Average (3 hours after treatment) | pH of the medium (3 hours after treatment) | pH of the medium, Average (4 hours after treatment) | pH of the medium (4 hours after treatment) | pH of the medium, Average (5 hours after treatment) | pH of the medium (5 hours after treatment) | pH of the medium, Average (6 hours after treatment) | pH of the medium (6 hours after treatment) | pH of the medium, Average (7 hours after treatment) | pH of the medium (7 hours after treatment) | pH of the medium, Average (8 hours after treatment) | pH of the medium (8 hours after treatment) | statistical significance of pH results compared to the water control | other results
1 | O=C([O-])O.[Na+] [Sodium Bicarbonate, Sodium bicarbonate] | 7.51 | 7.48 and 7.39 and 7.58 and 7.59 | little to no effect on the drop in pH | 7.07 | 7.09 and 6.97 and 7.1 and 7.12 | 6.84 | 6.67 and 6.81 and 6.93 and 6.96 | 6.52 | 5.85 and 6.6 and 6.82 and 6.81 | 6.08 | 5.08 and 6.21 and 6.49 and 6.53 | 5.69 | 5.03 and 5.7 and 5.97 and 6.06 | 5.22 | 5 and 5.11 and 5.33 and 5.42 | 5.01 | 5 and 4.96 and 5.01 and 5.06 | 5.00 | 5.06 and 4.96 and 4.97 | statistically significant difference at 1 hour | 
2 | O.O.O=C([O-])CC(O)(CC(=O)[O-])C(=O)[O-].[Na+].[Na+].[Na+] [Sodium Citrate, Sodium citrate dihydrate] | 7.50 |  | little to no effect on the drop in pH | 7.05 |  | 6.83 |  | 6.50 |  | 6.00 |  | 5.64 |  | 5.22 |  | 5.00 |  | 4.97 |  | no statistically significant difference at any time | pH of the medium (0 hours after treatment, citrate dihydrate): 7.5 and 7.35 and 7.57 and 7.58; pH of the medium (1 hour after treatment, citrate dihydrate): 7.05 and 6.93 and 7.09 and 7.12; pH of the medium (2 hours after treatment, citrate dihydrate): 6.69 and 6.75 and 6.91 and 6.95; pH of the medium (3 hours after treatment, citrate dihydrate): 6.01 and 6.47 and 6.76 and 6.77; pH of the medium (4 hours after treatment, citrate dihydrate): 5.14 and 5.94 and 6.44 and 6.48; pH of the medium (5 hours after treatment, citrate dihydrate): 5.02 and 5.49 and 5.96 and 6.07; pH of the medium (6 hours after treatment, citrate dihydrate): 4.98 and 5.06 and 5.36 and 5.46; pH of the medium (7 hours after treatment, citrate dihydrate): 4.97 and 4.92 and 5.04 and 5.07; pH of the medium (8 hours after treatment, citrate dihydrate): 4.99 and 4.95 and 4.96
3 | OC[C@@H](O)[C@H](O)[C@@H](O)CO [Xylitol] | 7.50 | 7.49 and 7.36 and 7.58 and 7.57 | able to slow the pH drop | 7.08 | 7.08 and 7 and 7.12 (2×) | 6.87 | 6.72 and 6.82 and 6.97 (2×) | 6.58 | 6.19 and 6.57 and 6.77 and 6.8 | 6.27 | 5.77 and 6.17 and 6.55 and 6.57 | 6.00 | 5.51 and 5.93 and 6.25 and 6.29 | 5.72 | 5.23 and 5.55 and 6.05 and 6.06 | 5.52 | 5.1 and 5.37 and 5.78 and 5.82 | 5.45 | 5.09 and 5.58 and 5.68 | statistically significant difference at 1, 6, 7, and 8 hours | 

Source: patent US20150297490A1, “COMPOSITIONS, USES AND METHODS FOR TREATING OR PREVENTING DENTAL CARIES” (APOLLONIA HEALTH INC., priority 2012, published 2015)
